Our source for the IC50 values is patent US20080188659A1, “Method for Preparing Halogenated Amines” (Wyeth, priority 2007, published 2008).

Where two headings read alike, the source gives them in different places. Some results are limits rather than exact numbers.

The target of one test is T1, mouse 11b-HSD1 (Mus musculus, UniProt P50172).
T1 construct: expressed in transfected cells
Kind of test: cell-based assay, stable CHO cell line expressing mouse 11b-HSD1, cortisol measured with DiscoverX HitHunter Cortisol Assay. As to conditions: CHO cells expressing mouse 11b-HSD1, 500 nM cortisone, 120 minutes. How it is done: To determine the potency of compounds against mouse 11b-HSD1, a stable CHO cell line expressing mouse 11b-HSD1 is used. Cells are plated at 20,000 cells/well in 96 well plates and incubated overnight (12-16 hrs) at 37° C./5% CO2. […] 10 ul of 5 micromolar cortisone (final concentration 500 nM) is then added to the cells and the plate is incubated at 37° C./5% CO2 for 120 minutes. 15 microliter of media is withdrawn and amount of cortisol in the media is measured using the DiscoverX HitHunter Cortisol Assay (DiscoverX corp, CA).

Another test deals with T2, human 11b-HSD1 (Homo sapiens, UniProt P28845).
T2 construct: expressed in transfected cells
Kind of test: cell-based assay, stable CHO cell line expressing human 11b-HSD1, cortisol measured with DiscoverX HitHunter Cortisol Assay. As to conditions: CHO cells expressing human 11b-HSD1; serum-free media; 500 nM cortisone, 120 minutes; read-out: Human 1C50. The method, then: Compounds described herein can be tested in a cell-based assay using a stable CHO cell line expressing human 11b-HSD1. Cells are plated at 20,000 cells/well in 96 well plates and incubated overnight (12-16 hrs) at 37° C./5% CO2. Cells are treated with different concentration of compound in 90 microliter serum-free media and incubated for 30 minutes at 37° C./5% CO2. 10 ul of 5 micromolar cortisone (final concentration 500 nM) is then added to the cells and the plate is incubated at 37° C./5% CO2 for 120 minutes. 15 microliter of media is withdrawn and amount of cortisol in the media is measured using the DiscoverX HitHunter Cortisol Assay (DiscoverX corp, CA).

The mark [1] stands for this setting: media containing 10% delipidized human serum, read-out: Mouse + Serum 1C50.
The mark [2] stands for this setting: serum-free media, read-out: Mouse 1C50.

T1 sequence (P50172 whole entry): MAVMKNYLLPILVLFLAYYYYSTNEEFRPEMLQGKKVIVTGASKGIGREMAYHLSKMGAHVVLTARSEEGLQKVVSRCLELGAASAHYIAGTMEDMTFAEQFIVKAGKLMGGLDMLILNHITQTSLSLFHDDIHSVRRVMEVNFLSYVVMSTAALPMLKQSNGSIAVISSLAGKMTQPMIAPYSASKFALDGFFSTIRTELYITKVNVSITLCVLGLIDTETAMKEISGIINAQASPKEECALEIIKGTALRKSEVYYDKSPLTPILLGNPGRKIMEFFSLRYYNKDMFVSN
T2 sequence (P28845 whole entry): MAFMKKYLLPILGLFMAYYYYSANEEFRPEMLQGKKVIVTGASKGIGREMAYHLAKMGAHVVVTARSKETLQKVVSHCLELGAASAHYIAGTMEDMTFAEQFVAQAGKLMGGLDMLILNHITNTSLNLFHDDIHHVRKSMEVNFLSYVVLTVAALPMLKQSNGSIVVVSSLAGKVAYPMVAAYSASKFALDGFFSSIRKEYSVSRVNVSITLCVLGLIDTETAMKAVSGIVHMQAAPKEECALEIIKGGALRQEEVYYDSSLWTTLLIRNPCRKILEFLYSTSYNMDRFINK

Turning to `NC(c1cccc(S(=O)(=O)N2CCCCC2)c1)(C(F)(F)F)C(F)(F)F` [Example 1, 2,2,2-Trifluoro-1-[3-(piperidine-1-sulfonyl)-phenyl]-1-trifluoromethyl-ethylamine], the IC50 at mouse 11b-HSD1 (setting [1]) is 3320 nM; on mouse 11b-HSD1 (setting [2]), more than 10000 nM; on human 11b-HSD1 it was more than 10000 nM.
For `NC(c1ccc(S(=O)(=O)N2CCCCC2)cc1)(C(F)(F)F)C(F)(F)F` [Example 2, 2,2,2-Trifluoro-1-[4-(piperidine-1-sulfonyl)-phenyl]-1-trifluoromethyl-ethylamine], the IC50 at mouse 11b-HSD1 (setting [1]) was determined as 731 nM; at mouse 11b-HSD1 (setting [2]) it was 613 nM; at human 11b-HSD1, 428 nM.
For `NC(c1cccc(S(=O)(=O)N2CCCC2)c1)(C(F)(F)F)C(F)(F)F` [Example 3, 2,2,2-Trifluoro-1-[3-(pyrrolidine-1-sulfonyl)-phenyl]-1-trifluoromethyl-ethylamine], the IC50 at mouse 11b-HSD1 (setting [1]), at mouse 11b-HSD1 (setting [2]) and at human 11b-HSD1 was more than 10000 nM each time.
On to `CCN(CC)S(=O)(=O)c1cccc(C(N)(C(F)(F)F)C(F)(F)F)c1` [Example 4, 3-(1-Amino-2,2,2-trifluoro-1-trifluoromethyl-ethyl)-N,N-diethyl-benzenesulfonamide], for which the IC50 on mouse 11b-HSD1 (setting [1]), on mouse 11b-HSD1 (setting [2]) and on human 11b-HSD1 was more than 10000 nM throughout.
As for `CC(C)(C)OC(=O)N(C1CCCCC1)S(=O)(=O)c1cccc(C(N)(C(F)(F)F)C(F)(F)F)c1` [Example 5, 3-(1-Amino-2,2,2-trifluoro-1-trifluoromethyl-ethyl)-N-(tert-butoxycarbonyl)-N-cyclohexyl-benzenesulfonamide], the IC50 at mouse 11b-HSD1 (setting [1]), on mouse 11b-HSD1 (setting [2]) and at human 11b-HSD1 was more than 10000 nM each time.
For the compound `CC(C)(C)OC(=O)N(Cc1ccccc1)S(=O)(=O)c1cccc(C(N)(C(F)(F)F)C(F)(F)F)c1` [Example 6, 3-(1-Amino-2,2,2-trifluoro-1-trifluoromethyl-ethyl)-N-benzyl-N-(tert-butoxycarbonyl)-benzenesulfonamide], the IC50 on mouse 11b-HSD1 (setting [1]), on mouse 11b-HSD1 (setting [2]) and at human 11b-HSD1 was more than 10000 nM in each case.
For `NC(c1cccc(C(=O)N2CCCCC2)c1)(C(F)(F)F)C(F)(F)F` [Example 7, [3-(1-Amino-2,2,2-trifluoro-1-trifluoromethyl-ethyl)-phenyl]-piperidin-1-yl-methanone], the results for the IC50 at mouse 11b-HSD1 (setting [1]), on mouse 11b-HSD1 (setting [2]) and at human 11b-HSD1 were 2690 nM, more than 10000 nM and 2380 nM, respectively.
The corresponding values for `COc1ccc(N(C(=O)OC(C)(C)C)S(=O)(=O)c2cccc(C(N)(C(F)(F)F)C(F)(F)F)c2)cc1` [Example 8, 3-(1-Amino-2,2,2-trifluoro-1-trifluoromethyl-ethyl)-N-(tert-butoxycarbonyl)-N-(4-methoxy-phenyl)-benzenesulfonamide] are more than 10000 nM, more than 10000 nM and more than 10000 nM.
The corresponding values for `NC(c1ccc(C(=O)N2CCCCC2)cc1)(C(F)(F)F)C(F)(F)F` [Example 9, [4-(1-Amino-2,2,2-trifluoro-1-trifluoromethyl-ethyl)-phenyl]-piperidin-1-yl-methanone] are 8380 nM, more than 10000 nM and more than 10000 nM.
For `COc1ccc(N(C(=O)OC(C)(C)C)S(=O)(=O)c2ccc(C(N)(C(F)(F)F)C(F)(F)F)cc2)cc1` [Example 10, 4-(1-Amino-2,2,2-trifluoro-1-trifluoromethyl-ethyl)-N-(tert-butoxycarbonyl)-N-(4-methoxy-phenyl)-benzenesulfonamide], in that order: more than 10000 nM, more than 10000 nM and more than 10000 nM.
For `CCN(CC)C(=O)c1cccc(C(N)(C(F)(F)F)C(F)(F)F)c1` [Example 11, 3-(1-Amino-2,2,2-trifluoro-1-trifluoromethyl-ethyl)-N,N-diethyl-benzamide], the IC50 at mouse 11b-HSD1 (setting [1]) turned out to be 291 nM.
For the compound `CCN(CC)C(=O)c1ccc(C(N)(C(F)(F)F)C(F)(F)F)cc1` [Example 12, 4-(1-Amino-2,2,2-trifluoro-1-trifluoromethyl-ethyl)-N,N-diethyl-benzamide], the IC50 on mouse 11b-HSD1 (setting [1]) stood at 165 nM.
For `CCN(CC)S(=O)(=O)c1ccc(C(N)(C(F)(F)F)C(F)(F)F)cc1` [Example 13, 4-(1-Amino-2,2,2-trifluoro-1-trifluoromethyl-ethyl)-N,N-diethyl-benzenesulfonamide], the IC50 at mouse 11b-HSD1 (setting [1]) amounted to 645 nM; on mouse 11b-HSD1 (setting [2]), 225 nM; at human 11b-HSD1, 565 nM.
For the compound `C[C@@H]1CN(c2ccc(C(N)(C(F)(F)F)C(F)(F)F)nc2)CCN1S(=O)(=O)c1cccc(C(C)(O)C(F)(F)F)c1` (stereo partly drawn) [Example 14, 2-(3-{[(2R)-4-{6-[1-amino-2,2,2-trifluoro-1-(trifluoromethyl)ethyl]pyridin-3-yl}-2-methylpiperazin-1-yl]sulfonyl}phenyl)-1,1,1-trifluoropropan-2-ol], the results for the IC50 at mouse 11b-HSD1 (setting [2]) and at human 11b-HSD1 were 160 nM and less than 10 nM, respectively.
The corresponding values for `C[C@@H]1CN(c2ccc(C(N)(C(F)(F)F)C(F)(F)F)cc2C(F)(F)F)CCN1S(=O)(=O)c1cccc(C(C)(O)C(F)(F)F)c1` (stereo partly drawn) [Example 15, 2-(3-{[(2R)-4-{4-[1-amino-2,2,2-trifluoro-1-(trifluoromethyl)ethyl]-2-(trifluoromethyl)phenyl}-2-methylpiperazin-1-yl]sulfonyl}phenyl)-1,1,1-trifluoropropan-2-ol] are 200 nM and 80 nM.
For `C[C@@H]1CN(c2ccc(C(N)(C(F)(F)F)C(F)(F)F)cc2C(F)(F)F)CCN1S(=O)(=O)c1ccc(C(C)(O)C(F)(F)F)cc1` (stereo partly drawn) [Example 16, 2-{4-([(2R)-4-[4-[1-amino-2,2,2-trifluoro-1-(trifluoromethyl)ethyl]-2-(trifluoromethyl)phenyl]-2-methylpiperazin-1-yl}sulfonyl)phenyl]-1,1,1-trifluoropropan-2-ol], in that order: less than 100 nM and 90 nM.
